Test system: atherosclerotic site of the aorta
Assay: Fluorescence imaging of aorta sections after ear vein injection of RITC-MSA or RITC
Type: in vivo
Details: cholesterol diet rabbit, 10 minutes after ear vein injection
Experimental: Ten 12-week-old normal rabbits (New Zealand White rabbits) were used for experiment. They were randomly divided into two groups of 5 rabbits. One group was given a normal diet and the other group was given a diet containing 1% cholesterol. The animals were kept under a standardized condition (21° C., 41-62% humidity) with regular light/dark (10/14 hr) cycles and were given free access to water and feed. 3 months later, after intravenously injecting 1 mCi of ^68Ga-MSA under anesthesia, positron emission tomography was performed on the whole body for 10 minutes from 10 minutes after the injection (FIGS. 5 and 6). On the next day, the rabbits were anesthetized and RITC-MSA (42 μg/0.1 mL) or RITC mixed in 0.9% physiological saline was injected into the ear vein of the rabbits. 10 minutes later, the rabbits were euthanized and the aorta was cut and kept at −20° C. The aorta sections were fixed at room temperature for 30 minutes in a 4% (v/v) buffered formalin solution, washed with cold PBS (pH 7.4), embedded in optimum cutting temperature compound (OCT, Sakura, Tokyo) and kept at −80° C. after a day for tissue penetration. Tissue slices cut to a thickness of […] were mounted on slides together with poly-D-lysine and then kept at room temperature until use after drying at 45° C. in the shade. […]

For rhodamine B isothiocyanate [RITC], the “fluorescence / binding at the atherosclerotic site of the aorta” value was “cannot be observed”.
